Test results published in the SangsterLogP compilation.

Assay: method code SF, from Hansch, C. & Leo, A. (1987). Log P database [Dataset]. Pomona College Medicinal Chemistry Project.

Structure (SMILES)	logP	other results
CC(=O)CCN(C)c1ccc(S(=O)(=O)N(C)C)cc1	0.23	
Cn1ccc(=O)cc1	-1.22	
CN(C=O)c1ccc(S(=O)(=O)N(C)C)cc1	0.4	
NC(=O)Cc1ccsc1	0.31	
CC(C)c1ccc(O)c(=O)cc1		logD (pH 5.0): 1.89
O=C1CCCCO1	-0.35	
C=CC=C	1.99	
Cc1cc(C)ncn1	0.62	
CN(C)Cc1ccco1	1.19	
O=C1OC(C2CCCCC2)c2ccccc21 (configuration not stated)	3.34	
COc1cc2c(c(OC)c1OC)-c1ccc(SC)c(=O)cc1[C@@H](N[C@@H]1O[C@H](CO)[C@@H](O)[C@H](O)[C@H]1O)CC2		logD (pH 7.4): 1.25
CC(=O)OC1CCCCC1NC(=O)N(CCCl)N=O (configuration not stated)	1.93	
Cc1cccc(C=C(C(N)=O)C(N)=O)c1	0.4	
COc1cc(C=O)ccc1OCCO	0.58	
CN(C)C(=O)Cc1ccsc1	0.65	
CC(=O)c1ccc(N(C)C)cc1		logD (pH 7.0): 2.1
C/C=C/C	2.31	
COC(=O)Cc1ccsc1	1.46	
Nc1nc(=O)c2ccccc2o1	0.27	
CCCOC=O	0.83	
CCCCN(CCCC)C(=O)COc1ccccc1	3.23	
O=C1OC(Cc2ccccc2)c2ccccc21 (configuration not stated)	3.12	
CCOCCCl	0.98	

Structure (SMILES)	logP	other results
CO[C@H]1[C@@H](O)[C@@H](C)O[C@H](O[C@H]2[C@H](Oc3cccc4c(O)c5c(=O)oc6ccc(C)c7c(=O)oc(c34)c5c67)O[C@H](C)[C@H](O)[C@@H]2O)[C@@H]1O		logD (pH 7.0): 1.8
CCCOc1cn[nH]c1	1.42	
Nc1nc(CON=CC(=O)NC2C(=O)N3C(C(=O)OC4OC(=O)c5ccccc54)=CCSC23)cs1 (configuration not stated)		logD (pH 6.2): 1.28
CNc1ccccn1	1.07	
Cc1ccc(Cc2c[nH]c(NCCCCc3ccc(Br)cc3C)nc2=O)cn1	3.61	
O=C(CCl)Nc1ccccc1	1.63	
CCSC(=Cc1ccccc1)C(=O)NC(C)CC (configuration not stated)	3.4	
Nc1ccccc1O	0.57	
CNC(N)=NC#N	-0.77	
c1ccc2c(c1)CCc1ccccc1NC2	2.82	
CCN(CC)/N=N/c1nc[nH]c1C(N)=O		logD (pH 4.6): 0.78
CCCOc1cccc(C=C(C(C)=O)C(=O)OCC)c1	3.34	
COc1cccc(OC)n1	2.3	
Nc1c2ccccc2nc2ccccc12	2.74	
CN(C)C(=O)c1cccs1	0.75	
COc1ccc(C=C(C(C)=O)C(C)=O)c(OC)c1	1.88	
O=C1C[C@@H]2OCC=C3CN4CC[C@]56c7ccccc7N1[C@H]5[C@H]2[C@H]3C[C@H]46	1.93	
Brc1ccc2ncccc2c1		logD (pH 7.0): 2.83
OCCCc1nc2ccccc2[nH]1	1.25	
COc1cc(C=NO)ccc1OCCO	0.82	
C#CCCC(C)=O	0.58	
CCOC(=O)OCC	1.21	
CCCCC1OC(=O)c2cc(N)ccc21 (configuration not stated)	2.86	

Structure (SMILES)	logP	other results
Cc1ccc([N+]([O-])=NC#N)cc1	2.39	
Oc1cc(O)cc(O)c1		logD (pH 1.4): 0.16
Nc1nc(S)c2ncn(C3CC(O)C(CO)O3)c2n1 (configuration not stated)		logD (pH 7.4): -0.56
CC(=O)OCC1CCC(NC(=O)N(CCCl)N=O)CC1 (configuration not stated)	2.24	
CCC(C)=O	0.5	
O=C(Nc1ccc(Cl)c(Cl)c1)C1CCCC1	4.47	
c1ccc2cnncc2c1	0.57	
CC(F)F	0.75	
O=C(NCC(O)c1ccc([N+](=O)[O-])cc1)C(F)(F)F (configuration not stated)	1.46	
CN(C(=O)CCCl)c1ccc(S(=O)(=O)N(C)C)cc1	0.98	
CCOC(=O)C(=Cc1ccc(OC)cc1OC)C(C)=O	2.41	
CN(c1ccccc1)c1ccccc1		logD (pH 13.0): 3.9
CC1=NCCN1	0.52	
O=C(O)c1cccs1	1.57	
CCCCC(=O)Nc1ccc(Cl)c(Cl)c1	4.17	
CCOP(=S)(OCC)SCS(=O)C(C)(C)C (configuration not stated)	2.21	
NC(=O)c1cccc([N+](=O)[O-])c1	0.77	
O=C(Nc1ccccc1)NC(CO)(CO)CO	0.43	
Cc1ccc2cccnc2c1	2.47	
CCCCCCC1OC(=O)c2cc(N)ccc21 (configuration not stated)	3.65	
CO/N=C(/C(=O)N[C@@H]1C(=O)N2C(C(=O)OC(C)OC(C)=O)=C(COC(N)=O)CS[C@@H]12)c1ccco1 (some centres not stated)		logD (pH 7.2): 0.89
OC(c1nc2cc(Cl)ccc2[nH]1)C(O)c1nc2cc(Cl)ccc2[nH]1 (configuration not stated)	1.21	
CO[C@H]1O[C@H](CNC(=O)N(C)N=O)[C@@H](O)[C@H](O)[C@H]1O		logD (pH 7.4): -1.57

Structure (SMILES)	logP	other results
C=CC(=O)c1ccccc1	1.88	
O=NN(CCCl)C(=O)NC1CS(=O)(=O)CS(=O)(=O)C1	-0.94	
CC(=S)Nc1ccccc1	1.71	
CC(=O)Nc1ccc2c(c1)S(=O)(=O)c1ccc(C)cc1C2=O	2.76	
CCOC(=O)CON=Cc1ccc(OCCOC(=O)CC)c(OC)c1	2.39	
O=C(O)CCCc1c[nH]c2ccccc12	2.3	
CC(C)Oc1ccccc1O	2.09	
CC1=Nc2c(Cl)cccc2S(=O)(=O)N1	0.72	
O=c1c2ccccc2ncn1O	-0.45	
CN(C)CC(O)c1ccccc1 (configuration not stated)		logD (pH 13.0): 1.54
O=S(=O)(Oc1ccccc1)c1ccccc1	3.06	
CC1(C)O[C@@H]2C[C@H]3[C@@H]4C[C@H](F)C5=CC(=O)C=C[C@]5(C)[C@@]4(F)[C@@H](O)C[C@]3(C)[C@]2(C(=O)CO)O1	2.48	
COc1ccc2[nH]c(CCc3nc4cc(OC)ccc4[nH]3)nc2c1	1.14	
c1cncc(CN2CCCCC2)c1		logD (pH 11.0): 1.49
Cc1cc(N(C)S(=O)(=O)c2ccc(N)cc2)no1		logD (pH 6.0): 1.75
Cn1ncc2cc([N+](=O)[O-])cc([N+](=O)[O-])c21	1.63	
CC(=O)Nc1cccs1	1.1	
CN(C)c1ccc(C(N)=O)cc1	1.14	
N#CN=[N+]([O-])c1cccc(Br)c1	2.56	
O=NN(CCCl)C(=O)NC12CC3CC(CC(C3)C1)C2	3.56	
Cc1ccccn1	1.11	
CC(=O)N[C@@H]1CC(=O)N(c2ccc(Cl)cc2)C1=O	0.75	
COC(=O)CNC(=O)c1ccc([N+](=O)[O-])cc1	0.98	

Structure (SMILES)	logP	other results
COc1cc(S(C)=O)ccc1-c1nc2ccccc2[nH]1 (configuration not stated)		logD (pH 8.0): 1.17
CCOC(N)=O	-0.15	
c1cncc(CN2CCCC2)c1		logD (pH 11.0): 1.1
CC(C)=NO	0.12	
O=S1(=O)NC(C2=CCCC2)=Nc2ccccc21	1.69	
CC(=O)Nc1cc2c(cc1Cl)S(=O)(=O)NC(C)=N2	0.53	
C[C@@H]1C[C@H]2[C@@H]3CCC4=CC(=O)C=C[C@]4(C)[C@@]3(F)[C@@H](O)C[C@]2(C)[C@@]1(O)C(=O)CO	1.99	
CC(=O)Nc1cccc(OC(=O)CNC(=O)c2ccccc2)c1	1.7	
CCOC(=O)/C(=C/c1ccc(OC)c(OC)c1)C(C)=O	2.02	
O=C(OCCOCCO)c1ccccc1	1.16	
N#Cc1ccco1	0.96	
CC(=O)Nc1ccccc1NC(C)=O	-0.03	
O=NN1CCCCC1=O	-1.05	
COc1cc(OC)cc(OC(=O)CNC(=O)c2ccccc2)c1	2.69	
COc1cc(O)cc(OC)c1	1.64	
O=c1nccc[nH]1	-1.62	
CN(C)c1nc2ccccc2o1	2.1	
Cc1cc(COc2ccccc2C(C)C)c(O)c(C(=O)O)c1	4.91	
c1ccc2c(c1)nnc1ccccc12	2.71	
CN(C)CCc1cccs1	1.99	
NC(=O)c1ccoc1	0.09	
CC1=Nc2cc(Br)ccc2S(=O)(=O)N1	1.37	
COc1cc(Cc2cnc(N)nc2N)cc(OC)c1N(C)C		logD (pH 13.0): 1.51

Structure (SMILES)	logP	other results
FC(F)(F)C(F)(F)C(F)(F)C(F)(F)C(F)(F)F	4.4	
CCNC(=S)Nc1ccccc1	1.42	
CCCCCC1(CC)C(=O)NC(=O)NC1=O	2.24	
ON=C(c1ccccc1)c1ccccc1	3.2	
CC(=O)Nc1ccc(C(C)=O)cc1	1.24	
CCOC(=O)CCc1ccccc1	2.73	
CNC(=O)Oc1cc(C)c(Cl)cc1Cl	3	
Brc1cccc(Br)c1	3.75	
CC(=O)OCC1=C(C(=O)O)N2C(=O)C(NC(=O)Cc3ccccc3)C2SC1 (configuration not stated)		logD (pH 3.0): 0.2
N#CN=[N+]([O-])c1cccc(F)c1	1.85	
CC1=Nc2cc(N)c(Cl)cc2S(=O)(=O)N1	0.63	
COc1cc(C=NO)ccc1OCCOC(=O)c1cccc(Cl)c1	3.94	
CCCCCCCNC(=O)c1ccccc1	2.94	
CN(C)/N=N/c1cccc(C(F)(F)F)c1	3.78	
CN(C)c1ccc([N+]([O-])=NC#N)cc1	2.3	
Cn1nnnc1SCC1=C(C(=O)O)N2C(=O)C(NC(=O)Cc3cccs3)C2SC1 (configuration not stated)		logD (pH 3.0): 0
CCC1=Nc2ccc(Cl)cc2S(=O)(=O)N1	1.62	
CC(=O)Nc1cc(OCC(=O)O)ccc1Cl	0.75	
Nc1ncc2ncn(COCCO)c2n1	-0.96	
N#CCc1ccco1	0.85	
Cc1nnc(SCc2ccccc2)s1	2.35	
Nc1ncccn1	-0.22	
COc1ccc2c(=O)c(C)c(C(C)C)oc2c1	3.39	

Structure (SMILES)	logP	other results
OC/C=C/c1ccccc1	1.95	
O=S1(=O)NC(C(Cl)Cl)=Nc2cc(Cl)ccc21	1.81	
Cl/C=C/Cl	2.09	
CC(C)C(=O)Nc1ccccc1	1.95	
CC(=O)c1cccc(F)c1		logD (pH 7.0): 1.77
CN(C)/N=N/c1cn([C@@H]2O[C@H](CO)[C@@H](O)[C@H]2O)c(=O)[nH]c1=O	-1.82	
CON(C)C(=O)Nc1cccc(C#N)c1	1.33	
CN(C)C#N	-0.15	
CNC(=O)NC	-0.96	
CCCC(=O)OCC(O)CO (configuration not stated)	-0.17	
C=C(Cl)Cl	2.13	
CN(C)/N=N/c1ccccc1I		logD (pH 2.0): 3.5
CCOP(=S)(OCC)N1C(=O)c2ccccc2C1=O	3.48	
O=c1cn[nH]c2ccccc12	0.82	
COCC1=Nc2cc(Cl)ccc2S(=O)(=O)N1	1.12	
CN(CCO)N=Nc1ccccc1		logD (pH 12.0): 1.71
CC1(C)N=C(N)N=C(N)N1c1ccc(I)cc1		logD (pH 13.0): 1.39
CSc1ccc2c(c1)C(c1ccccc1)=NCC(=O)N2		logD (pH 7.4): 2.92
O=C(O)c1ccoc1	1.03	
